Paper PMC4128473 (Bioorganic & medicinal chemistry, 2014)

Molecular target: T1, hA3AR (Homo sapiens, UniProt P0DMS8)
T1 sequence (P0DMS8 1-318): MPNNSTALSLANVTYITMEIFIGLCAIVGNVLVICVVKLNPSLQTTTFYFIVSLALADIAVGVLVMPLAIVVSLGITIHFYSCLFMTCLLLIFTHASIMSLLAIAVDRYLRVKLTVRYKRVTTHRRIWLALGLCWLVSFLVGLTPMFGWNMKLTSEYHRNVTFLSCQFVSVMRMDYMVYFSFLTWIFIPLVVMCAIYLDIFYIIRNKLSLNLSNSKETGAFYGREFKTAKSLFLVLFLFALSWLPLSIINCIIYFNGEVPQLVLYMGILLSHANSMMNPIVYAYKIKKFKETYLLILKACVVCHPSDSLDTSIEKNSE
Format: cell-based
Settings: compared to Cl-IB-MECA as reference full agonist

| SMILES | functional behaviour at hA3AR (cAMP assay) |
| --- | --- |
| COc1ccc(Cl)cc1CNc1ncnc2c1ncn2[C@@H]1OC[C@](O)(CO)[C@H]1O [10c, 1′-[N^6-(2-Methoxy-5-chlorobenzyl)-adenin-9-yl]-β-D-apio-D-furanose] | inactive |
| COc1ccc(Cl)cc1CNc1ncnc2c1ncn2[C@@H]1OC[C@@](O)(CO)[C@H]1O [11c, 1′-[N^6-(2-Methoxy-5-chlorobenzyl)adenin-9-yl]-α-D-apio-L-furanose] | partial agonist |
